US12037333B2, “Pyridopyrazine and pyridotriazine inhibitors of influenza virus replication” (priority 2018, dated 2024)

The compounds below were run on Influenza type B (cell culture adapted strain B/Lee/40, ATCC VR-1535) (assay: Influenza antiviral assay: inhibition of virus-induced cytopathic effects (CPE) in MDCK cells, XTT dye reduction). Conditions: Influenza B virus, MDCK, 96 h, strain B/Lee/40, MDCK cells, CPE inhibition at 4 days.
Format: cell-based
`O=C1c2c(O)c(=O)ccn2N(C23c4ccccc4CC2Cc2c(F)cccc23)CN1CCF` (stereo not shown) [Compound A68] gave an EC50 of under 125 nM.
With `CC(CCN1CN(C23c4ccccc4CC2Cc2c3ccc(F)c2F)n2ccc(=O)c(O)c2C1=O)c1ccccc1` (stereo not shown) [Compound A91] the EC50 was 125 to 250 nM.
In the case of `COCCN1CN(C23c4ccccc4CC2Cc2c3ccc(F)c2F)n2ccc(=O)c(O)c2C1=O` (stereo not shown) [Compound A70], the EC50 is reported as under 125 nM.
`CC(C)CN1CN(C23c4ccccc4CC2Cc2c3ccc(F)c2F)n2ccc(=O)c(O)c2C1=O` (stereo not shown) [Compound A149] showed an EC50 of under 125 nM.
Work on `O=C1c2c(O)c(=O)ccn2N(C23c4ccccc4CC2Cc2c3ccc(F)c2F)CN1CC1CCCC1` (stereo not shown) [Compound A100] yielded an EC50 of 250 to 375 nM.
Work on `O=C1c2c(O)c(=O)ccn2N(C23c4ccccc4CC2Cc2c3ccc(F)c2F)CN1CC1CCCCO1` (stereo not shown) [Compound A131] yielded an EC50 of 125 to 250 nM.
Compound `CC1N(C2CCC2)C(=O)c2c(O)c(=O)ccn2N1C12c3ccccc3CC1Cc1c(F)cccc12` (stereo not shown) [Compound A141] has an EC50 of 250 to 375 nM.
`COCCN1C(=O)c2c(O)c(=O)ccn2N(C23c4ccccc4CC2Cc2c(F)cccc23)C1C` (stereo not shown) [Compound A124] showed an EC50 of 375 to 500 nM.
Work on `O=C1c2c(O)c(=O)ccn2N(C23c4cccc(F)c4CC2Cc2c(F)cccc23)CN1CC1CCOCC1` (stereo not shown) [Compound A81] yielded an EC50 of 125 to 250 nM.
`CCN1CN(C23c4ccccc4CC2Cc2c3ccc(Cl)c2Cl)n2ccc(=O)c(O)c2C1=O` (stereo not shown) [Compound A161] showed an EC50 of under 125 nM.
`CCCN1CN(C23c4ccccc4CC2Cc2c3ccc(F)c2F)n2ccc(=O)c(O)c2C1=O` (stereo not shown) [Compound A148] gave an EC50 of 125 to 250 nM.
`CC1N(CCF)C(=O)c2c(O)c(=O)ccn2N1C12c3ccccc3CC1Cc1c(F)cccc12` (stereo not shown) [Compound A121] was tested, and the EC50 was 125 to 250 nM.
`CN1CN(C23c4cc(F)ccc4CC2Cc2c(Cl)cccc23)n2ccc(=O)c(O)c2C1=O` (stereo not shown) [Compound A96] was tested, and the EC50 was under 125 nM.
`CC1N(C)C(=O)c2c(O)c(=O)ccn2N1C12c3ccccc3CC1Cc1c(F)cccc12` (stereo not shown) [Compound A60] showed an EC50 of under 125 nM.
`O=C1c2c(O)c(=O)ccn2N(C23c4ccccc4CC2Cc2c(F)cccc23)CN1CC1CCCCO1` (stereo not shown) [Compound A133] gave an EC50 of 125 to 250 nM.
`O=C1c2c(O)c(=O)ccn2N(C23c4ccccc4CC2Cc2c(Cl)cccc23)CN1CC1CCCC1` (stereo not shown) [Compound A104] showed an EC50 of 125 to 250 nM.
Compound `CCC1N(C)C(=O)c2c(O)c(=O)ccn2N1C12c3ccccc3CC1Cc1ccccc12` (stereo not shown) [Compound A166] has an EC50 of under 125 nM.
`O=C1c2c(O)c(=O)ccn2N(C23c4ccccc4CC2Cc2cc(F)c(F)cc23)CN1Cc1cccc(F)c1` (stereo not shown) [Compound A24, 1-(2,3-difluoro-9a,10-dihydroindeno[1,2-a]inden-4b(9H)-yl)-3-(3-fluorobenzyl)-5-hydroxy-2,3-dihydro-1H-pyrido[2,1-f][1,2,4]triazine-4,6-dione] was tested, and the EC50 was 375 to 500 nM.
For `CN1CN(C23c4ccccc4CC2Cc2cc(F)c(F)cc23)n2ccc(=O)c(O)c2C1=O` (stereo not shown) [Compound A19, 1-(2,3-difluoro-9a,10-dihydroindeno[1,2-a]inden-4b(9H)-yl)-5-hydroxy-3-methyl-2,3-dihydro-1H-pyrido[2,1-f][1,2,4]triazine-4,6-dione], the EC50 was 250 to 375 nM.
`COCCN1C(=O)c2c(O)c(=O)ccn2N(C23c4ccccc4CC2Cc2c(Cl)cccc23)C1C` (stereo not shown) [Compound A125] showed an EC50 of 125 to 250 nM.
`Cc1cc(CN2CN(C34c5ccccc5CC3Cc3ccccc34)n3ccc(=O)c(O)c3C2=O)no1` (stereo not shown) [Compound A144] was tested, and the EC50 was under 125 nM.
Work on `CN1C(=O)c2c(O)c(=O)ccn2N(C23c4cccc(F)c4CC2Cc2c(F)cccc23)C1CN` (stereo not shown) [Compound A107, 2-(aminomethyl)-1-(1,8-difluoro-9a,10-dihydroindeno[1,2-a]inden-4b(9H)-yl)-5-hydroxy-3-methyl-2,3-dihydro-1H-pyrido[2,1-f][1,2,4]triazine-4,6-dione] yielded an EC50 of 125 to 250 nM.
With `CN1CN(C23c4ccccc4CC2Cc2c3ccc(F)c2Cl)n2ccc(=O)c(O)c2C1=O` (stereo not shown) [Compound A46, 1-(1-Chloro-2-fluoro-9a,10-dihydroindeno[1,2-a]inden-4b(9H)-yl)-5-hydroxy-3-methyl-2,3-dihydro-1H-pyrido[2,1-f][1,2,4]triazine-4,6-dione] the EC50 was under 125 nM.
In the case of `CCN1CN(C23c4ccccc4CC2(CC)Cc2ccccc23)n2ccc(=O)c(O)c2C1=O` (stereo not shown) [Compound A157], the EC50 is reported as 125 to 250 nM.
`O=C1c2c(O)c(=O)ccn2N(C23c4ccccc4CC2Cc2c(Cl)cccc23)CN1CC1CC1` (stereo not shown) [Compound A108] gave an EC50 of 250 to 375 nM.
In the case of `CN1CN(C23c4ccccc4CC2Cc2ccc(F)cc23)n2ccc(=O)c(O)c2C1=O` (stereo not shown) [Compound A53], the EC50 is reported as under 125 nM.
Compound `CC(C)N1CN(C23c4cccc(F)c4CC2(C)Cc2c(F)cccc23)n2ccc(=O)c(O)c2C1=O` (stereo not shown) [Compound A89] has an EC50 of 375 to 500 nM.
Work on `Cc1ccc2c(c1F)CC1Cc3ccccc3C21N1CN(C)C(=O)c2c(O)c(=O)ccn21` (stereo not shown) [Compound A85] yielded an EC50 of 250 to 375 nM.
`CCN1CN(C23c4ccccc4CC2Cc2ccc(F)cc23)n2ccc(=O)c(O)c2C1=O` (stereo not shown) [Compound A52] showed an EC50 of under 125 nM.
For `CC1N(C)C(=O)c2c(O)c(=O)ccn2N1C12c3ccccc3CC1Cc1c(Cl)cccc12` (stereo not shown) [Compound A94], the EC50 was 250 to 375 nM.
For `CCCN1C(=O)c2c(O)c(=O)ccn2N(C23c4ccccc4CC2Cc2c(Cl)cccc23)C1C` (stereo not shown) [Compound A132], the EC50 was 250 to 375 nM.
For `CC1N(C)C(=O)c2c(O)c(=O)ccn2N1C12c3ccccc3CC1Cc1ccccc12` (stereo not shown) [Compound A158], the EC50 was 125 to 250 nM.
For `O=C1c2c(O)c(=O)ccn2N(C23c4cccc(F)c4CC2Cc2c(F)cccc23)CN1CCF` (stereo not shown) [Compound A58], the EC50 was under 125 nM.
For `CN1CN(C23C(=Cc4ccccc42)Cc2ccccc23)n2ccc(=O)c(O)c2C1=O` (stereo not shown) [Compound A30, 5-hydroxy-1-(indeno[1,2-a]inden-4b(9H)-yl)-3-methyl-2,3-dihydro-1H-pyrido[2,1-f][1,2,4]triazine-4,6-dione], the EC50 was 375 to 500 nM.
